Results published in ChEMBL document CHEMBL2074424, “Breast cancer resistance protein directly confers SN-38 resistance of lung cancer cells” (Biochem Biophys Res Commun, 2001).

Biological target: T1, Broad substrate specificity ATP-binding cassette transporter ABCG2 (Homo sapiens, UniProt Q9UNQ0)
T1 sequence (Q9UNQ0 whole entry): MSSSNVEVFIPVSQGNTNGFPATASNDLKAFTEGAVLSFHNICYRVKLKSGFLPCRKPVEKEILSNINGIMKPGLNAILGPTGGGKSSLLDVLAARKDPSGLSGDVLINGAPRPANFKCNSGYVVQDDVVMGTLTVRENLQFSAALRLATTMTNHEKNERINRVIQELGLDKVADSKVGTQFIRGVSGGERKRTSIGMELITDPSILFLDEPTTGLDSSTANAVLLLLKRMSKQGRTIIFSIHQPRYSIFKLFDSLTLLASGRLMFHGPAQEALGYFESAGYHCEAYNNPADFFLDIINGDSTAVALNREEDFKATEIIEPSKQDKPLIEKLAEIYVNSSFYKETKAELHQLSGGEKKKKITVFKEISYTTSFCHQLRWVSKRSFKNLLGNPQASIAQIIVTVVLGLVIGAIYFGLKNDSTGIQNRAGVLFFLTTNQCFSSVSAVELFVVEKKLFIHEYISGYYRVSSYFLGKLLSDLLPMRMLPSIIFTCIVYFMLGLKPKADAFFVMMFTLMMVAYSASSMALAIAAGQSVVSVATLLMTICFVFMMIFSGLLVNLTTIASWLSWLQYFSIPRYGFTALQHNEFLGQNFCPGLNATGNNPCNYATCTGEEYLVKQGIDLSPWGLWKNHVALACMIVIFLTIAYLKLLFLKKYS
Assay: TP_TRANSPORTER: inhibition of accumulation by antisense of BCRP in PC-6/SN2-5,PC-6/SN2-5H cells
Type: functional, cell-based

Activity: substrate [+]
Structure (SMILES): CCc1c2c(nc3ccc(O)cc13)-c1cc3c(c(=O)n1C2)COC(=O)[C@]3(O)CC [7-ETHYL-10-HYDROXYCAMPTOTHECIN]
